Results published in ChEMBL document CHEMBL3580659, “One-pot multicomponent synthesis of indole incorporated thiazolylcoumarins and their antibacterial, anticancer and DNA cleavage studies” (2015).

Assays:
Format in all cases: functional
OVCAR-5 = test: Cytotoxicity against human OVCAR5 cells assessed as cell growth level at 100 uM after 48 hrs by sulforhodamine B assay
UO-31 = test: Cytotoxicity against human UO31 cells assessed as cell growth level at 100 uM after 48 hrs by sulforhodamine B assay
NCI-H522 = test: Cytotoxicity against human NCI-H522 cells assessed as cell growth level at 10 nM after 48 hrs by sulforhodamine B assay
LOX IMVI [1] = test: Cytotoxicity against human LOXIMVI cells assessed as cell growth level at 10 nM after 48 hrs by sulforhodamine B assay
M14 [2] = test: Cytotoxicity against human M14 cells assessed as cell growth level at 10 nM after 48 hrs by sulforhodamine B assay
SK-MEL-2 = test: Cytotoxicity against human SK-MEL-2 cells assessed as cell growth level at 10 nM after 48 hrs by sulforhodamine B assay
UACC-62 = test: Cytotoxicity against human UACC62 cells assessed as cell growth level at 10 nM after 48 hrs by sulforhodamine B assay
OVCAR-3 = test: Cytotoxicity against human OVCAR3 cells assessed as cell growth level at 10 nM after 48 hrs by sulforhodamine B assay
A498 [3] = test: Cytotoxicity against human A498 cells assessed as cell growth level at 10 nM after 48 hrs by sulforhodamine B assay
SN12C = test: Cytotoxicity against human SN12C cells assessed as cell growth level at 10 nM after 48 hrs by sulforhodamine B assay
MDA-MB-231 [4] = test: Cytotoxicity against human MDA-MB-231/ATCC cells assessed as cell growth level at 10 nM after 48 hrs by sulforhodamine B assay
HOP-62 = test: Cytotoxicity against human HOP62 cells assessed as cell growth level at 100 nM after 48 hrs by sulforhodamine B assay
SF-295 = test: Cytotoxicity against human SF295 cells assessed as cell growth level at 100 nM after 48 hrs by sulforhodamine B assay
SK-MEL-5 = test: Cytotoxicity against human SK-MEL-5 cells assessed as cell growth level at 100 nM after 48 hrs by sulforhodamine B assay
SK-OV-3 [5] = test: Cytotoxicity against human SKOV3 cells assessed as cell growth level at 100 nM after 48 hrs by sulforhodamine B assay
CAKI-1 = test: Cytotoxicity against human CAKI-1 cells assessed as cell growth level at 100 nM after 48 hrs by sulforhodamine B assay
A549 = test: Cytotoxicity against human A549/ATCC cells assessed as cell growth level at 10 uM after 48 hrs by sulforhodamine B assay
HOP-92 [6] = test: Cytotoxicity against human HOP92 cells assessed as cell growth level at 10 uM after 48 hrs by sulforhodamine B assay
M14 [7] = test: Cytotoxicity against human M14 cells assessed as cell growth level at 10 uM after 48 hrs by sulforhodamine B assay
SK-OV-3 [8] = test: Cytotoxicity against human SKOV3 cells assessed as cell growth level at 10 uM after 48 hrs by sulforhodamine B assay
ACHN = test: Cytotoxicity against human ACHN cells assessed as cell growth level at 10 uM after 48 hrs by sulforhodamine B assay
SNB-19 = test: Cytotoxicity against human SNB19 cells assessed as cell growth level at 1 uM after 48 hrs by sulforhodamine B assay
SNB-75 = test: Cytotoxicity against human SNB75 cells assessed as cell growth level at 1 uM after 48 hrs by sulforhodamine B assay
LOX IMVI [9] = test: Cytotoxicity against human LOXIMVI cells assessed as cell growth level at 1 uM after 48 hrs by sulforhodamine B assay
786-0 = test: Cytotoxicity against human 786-0 cells assessed as cell growth level at 1 uM after 48 hrs by sulforhodamine B assay
MDA-MB-231 [10] = test: Cytotoxicity against human MDA-MB-231/ATCC cells assessed as cell growth level at 1 uM after 48 hrs by sulforhodamine B assay
CCRF-CEM = test: Cytotoxicity against human CCRF-CEM cells assessed as cell growth level at 100 uM after 48 hrs by sulforhodamine B assay
RPMI-8226 = test: Cytotoxicity against human RPMI8226 cells after 48 hrs by sulforhodamine B assay; settings: RPMI-8226, 48 h
NCI-H322M = test: Cytotoxicity against human NCI-H322M cells after 48 hrs by sulforhodamine B assay
U-251 = test: Cytotoxicity against human U251 cells after 48 hrs by sulforhodamine B assay; settings: U-251, 48 h
HOP-92 [11] = test: Cytotoxicity against human HOP92 cells assessed as cell growth level at 100 uM after 48 hrs by sulforhodamine B assay
NCI-H226 = test: Cytotoxicity against human NCI-H226 cells assessed as cell growth level at 100 uM after 48 hrs by sulforhodamine B assay
HCT-116 = test: Cytotoxicity against human HCT116 cells assessed as cell growth level at 100 uM after 48 hrs by sulforhodamine B assay
SK-OV-3 [12] = test: Cytotoxicity against human SKOV3 cells after 48 hrs by sulforhodamine B assay; settings: SK-OV-3, 48 h
A498 [13] = test: Cytotoxicity against human A498 cells after 48 hrs by sulforhodamine B assay; settings: A498, 48 h
SR = test: Cytotoxicity against human SR cells assessed as cell growth level at 10 nM after 48 hrs by sulforhodamine B assay
[14] = read-out: LC50 (the source's name)
[15] = read-out: pLC50 (the source's name) (converted)

SMILES: O=c1oc2ccccc2cc1-c1csc(N/N=C/c2c[nH]c3ccccc23)n1
- Activity (OVCAR-5): -36%
- Activity (UO-31): -52%
- Activity (NCI-H522): 105%
- Activity (LOX IMVI [1]): 91%
- Activity (M14 [2]): 97%
- Activity (SK-MEL-2): 98%
- Activity (UACC-62): 95%
- Activity (OVCAR-3): 99%
- Activity (A498 [3]): 95%
- Activity (SN12C): 88%
- Activity (MDA-MB-231 [4]): 97%
- Activity (HOP-62): 110%
- Activity (SF-295): 97%
- Activity (SK-MEL-5): 88%
- Activity (SK-OV-3 [5]): 90%
- Activity (CAKI-1): 88%
- Activity (A549): -30.98%
- Activity (HOP-92 [6]): -14.45%
- Activity (M14 [7]): 34.19%
- Activity (SK-OV-3 [8]): 62.24%
- Activity (ACHN): 10.07%
- Activity (SNB-19): 73%
- Activity (SNB-75): 74%
- Activity (LOX IMVI [9]): 74%
- Activity (786-0): 80%
- Activity (MDA-MB-231 [10]): 92%
- Activity (CCRF-CEM): -39%
- GI50 (RPMI-8226; read-out: GI50): 0.9 µM
- CC50 (RPMI-8226; [14]): > 100 µM
- TGI (RPMI-8226; read-out: TGI): 4.79 µM
- GI50 (RPMI-8226; read-out: pGI50 (converted)): 0.912 µM
- CC50 (RPMI-8226; [15]): > 100 µM
- TGI (RPMI-8226; read-out: pTGI (converted)): 4.79 µM
- GI50 (NCI-H322M; read-out: GI50): 3.16 µM
- LC50 (concentration killing 50% of cells) (NCI-H322M; read-out: LC50): > 100 µM
- TGI (NCI-H322M; read-out: TGI): 32.2 µM
- GI50 (NCI-H322M; read-out: pGI50 (converted)): 3.16 µM
- LC50 (concentration killing 50% of cells) (NCI-H322M; read-out: pLC50 (converted)): > 100 µM
- TGI (NCI-H322M; read-out: pTGI (converted)): 32.4 µM
- GI50 (U-251; read-out: GI50): 1.75 µM
- CC50 (U-251; [14]): 77.7 µM
- TGI (U-251; read-out: TGI): 5.6 µM
- GI50 (U-251; read-out: pGI50 (converted)): 1.74 µM
- CC50 (U-251; [15]): 77.6 µM
- TGI (U-251; read-out: pTGI (converted)): 5.62 µM
- Activity (HOP-92 [11]): -27%
- Activity (NCI-H226): -31%
- Activity (HCT-116): -66%
- GI50 (SK-OV-3 [12]; read-out: GI50): 3.95 µM
- CC50 (SK-OV-3 [12]; [14]): > 100 µM
- TGI (SK-OV-3 [12]; read-out: TGI): > 100 µM
- GI50 (SK-OV-3 [12]; read-out: pGI50 (converted)): 3.98 µM
- CC50 (SK-OV-3 [12]; [15]): > 100 µM
- TGI (SK-OV-3 [12]; read-out: pTGI (converted)): 100 µM
- GI50 (A498 [13]; read-out: GI50): 2.21 µM
- CC50 (A498 [13]; [14]): > 100 µM
- TGI (A498 [13]; read-out: TGI): 8.2 µM
- GI50 (A498 [13]; read-out: pGI50 (converted)): 2.19 µM
- CC50 (A498 [13]; [15]): > 100 µM
- TGI (A498 [13]; read-out: pTGI (converted)): 8.13 µM
- Activity (SR): 94%
